Tests used:
[1] = target: Atypical kinase COQ8A, mitochondrial (Homo sapiens) (UniProt Q8NI60); details: Compound concentration 1000.0 nM
[2] = target: RAC-beta serine/threonine-protein kinase (Homo sapiens) (UniProt P31751); details: Compound concentration 1000.0 nM
[3] = target: Aurora kinase C (Homo sapiens) (UniProt Q9UQB9); details: Compound concentration 1000.0 nM
[4] = target: Protein-tyrosine kinase 6 (Homo sapiens) (UniProt Q13882); details: Compound concentration 1000.0 nM
[5] = target: Calcium/calmodulin-dependent protein kinase type 1G (Homo sapiens) (UniProt Q96NX5); details: Compound concentration 1000.0 nM
[6] = target: Calcium/calmodulin-dependent protein kinase kinase 1 (Homo sapiens) (UniProt Q8N5S9); details: Compound concentration 1000.0 nM
[7] = target: Cyclin-dependent kinase 4 (Homo sapiens) (UniProt P11802); details: Compound concentration 1000.0 nM
[8] = target: Epidermal growth factor receptor (Homo sapiens) (UniProt P00533); details: Compound concentration 1000.0 nM
[9] = test system: Epidermal growth factor receptor (Homo sapiens), P00533 [G719S]; details: Compound concentration 1000.0 nM
[10] = test system: Epidermal growth factor receptor (Homo sapiens), P00533 [L858R,T790M]; details: Compound concentration 1000.0 nM
[11] = target: Eukaryotic translation initiation factor 2-alpha kinase 1 (Homo sapiens) (UniProt Q9BQI3); details: Compound concentration 1000.0 nM
[12] = target: Ephrin type-B receptor 3 (Homo sapiens) (UniProt P54753); details: Compound concentration 1000.0 nM
[13] = target: Focal adhesion kinase 1 (Homo sapiens) (UniProt Q05397); details: Compound concentration 1000.0 nM
[14] = target: Vascular endothelial growth factor receptor 1 (Homo sapiens) (UniProt P17948); details: Compound concentration 1000.0 nM
[15] = test system: Receptor-type tyrosine-protein kinase FLT3 (Homo sapiens), P36888 [UNDEFINED MUTATION]; details: Compound concentration 1000.0 nM
[16] = target: Tyrosine-protein kinase FRK (Homo sapiens) (UniProt P42685); details: Compound concentration 1000.0 nM
[17] = target: Cyclin-G-associated kinase (Homo sapiens) (UniProt O14976); details: Compound concentration 1000.0 nM
[18] = target: Rhodopsin kinase GRK1 (Homo sapiens) (UniProt Q15835); details: Compound concentration 1000.0 nM
[19] = target: Mitogen-activated protein kinase kinase kinase kinase 1 (Homo sapiens) (UniProt Q92918); details: Compound concentration 1000.0 nM
[20] = target: Tyrosine-protein kinase JAK1 (Homo sapiens) (UniProt P23458); details: Compound concentration 1000.0 nM
[21] = target: LIM domain kinase 1 (Homo sapiens) (UniProt P53667); details: Compound concentration 1000.0 nM
[22] = target: Leukocyte tyrosine kinase receptor (Homo sapiens) (UniProt P29376); details: Compound concentration 1000.0 nM
[23] = target: Mitogen-activated protein kinase kinase kinase 2 (Homo sapiens) (UniProt Q9Y2U5); details: Compound concentration 1000.0 nM
[24] = target: MAP/microtubule affinity-regulating kinase 4 (Homo sapiens) (UniProt Q96L34); details: Compound concentration 1000.0 nM
[25] = target: Myosin light chain kinase (Homo sapiens) (UniProt Q32MK0); details: Compound concentration 1000.0 nM
[26] = target: Serine/threonine-protein kinase MRCK beta (Homo sapiens) (UniProt Q9Y5S2); details: Compound concentration 1000.0 nM
[27] = target: Serine/threonine-protein kinase Nek6 (Homo sapiens) (UniProt Q9HC98); details: Compound concentration 1000.0 nM
[28] = target: Cyclin-dependent kinase 14 (Homo sapiens) (UniProt O94921); details: Compound concentration 1000.0 nM
[29] = test system: Phosphatidylinositol 4,5-bisphosphate 3-kinase catalytic subunit alpha isoform (Homo sapiens), P42336 [I800L]; details: Compound concentration 1000.0 nM
[30] = test system: Phosphatidylinositol 4,5-bisphosphate 3-kinase catalytic subunit alpha isoform (Homo sapiens), P42336 [M1043I]; details: Compound concentration 1000.0 nM
[31] = target: Serine/threonine-protein kinase RIO1 (Homo sapiens) (UniProt Q9BRS2); details: Compound concentration 1000.0 nM
[32] = target: Dual serine/threonine and tyrosine protein kinase (Homo sapiens) (UniProt Q6XUX3); details: Compound concentration 1000.0 nM
[33] = target: Ribosomal protein S6 kinase alpha-2 (Homo sapiens) (UniProt Q15349); details: Compound concentration 1000.0 nM
[34] = target: Ribosomal protein S6 kinase alpha-6 (Homo sapiens) (UniProt Q9UK32); details: Compound concentration 1000.0 nM
[35] = target: Serine/threonine-protein kinase Sgk1 (Homo sapiens) (UniProt O00141); details: Compound concentration 1000.0 nM
[36] = target: Uncharacterized serine/threonine-protein kinase SBK3 (Homo sapiens) (UniProt P0C264); details: Compound concentration 1000.0 nM
[37] = target: STE20-like serine/threonine-protein kinase (Homo sapiens) (UniProt Q9H2G2); details: Compound concentration 1000.0 nM
[38] = target: Serine/threonine-protein kinase 36 (Homo sapiens) (UniProt Q9NRP7); details: Compound concentration 1000.0 nM
[39] = target: Mitogen-activated protein kinase kinase kinase 7 (Homo sapiens) (UniProt O43318); details: Compound concentration 1000.0 nM
[40] = target: High affinity nerve growth factor receptor (Homo sapiens) (UniProt P04629); details: Compound concentration 1000.0 nM
[41] = target: Tyrosine-protein kinase receptor TYRO3 (Homo sapiens) (UniProt Q06418); details: Compound concentration 1000.0 nM
[42] = target: Phosphatidylinositol 3-kinase catalytic subunit type 3 (Homo sapiens) (UniProt Q8NEB9); details: Compound concentration 1000.0 nM
[43] = target: D(1B) dopamine receptor (Homo sapiens) (UniProt P21918); details: Compound concentration 10.0 uM
[44] = target: Histamine H1 receptor (Homo sapiens) (UniProt P35367); details: Compound concentration 10.0 uM
[45] = target: Alpha-2B adrenergic receptor (Homo sapiens) (UniProt P18089); details: Compound concentration 10.0 uM

LIM domain kinase 1 (Homo sapiens), sequence (P53667 whole entry, looked up, the tested form may be a part): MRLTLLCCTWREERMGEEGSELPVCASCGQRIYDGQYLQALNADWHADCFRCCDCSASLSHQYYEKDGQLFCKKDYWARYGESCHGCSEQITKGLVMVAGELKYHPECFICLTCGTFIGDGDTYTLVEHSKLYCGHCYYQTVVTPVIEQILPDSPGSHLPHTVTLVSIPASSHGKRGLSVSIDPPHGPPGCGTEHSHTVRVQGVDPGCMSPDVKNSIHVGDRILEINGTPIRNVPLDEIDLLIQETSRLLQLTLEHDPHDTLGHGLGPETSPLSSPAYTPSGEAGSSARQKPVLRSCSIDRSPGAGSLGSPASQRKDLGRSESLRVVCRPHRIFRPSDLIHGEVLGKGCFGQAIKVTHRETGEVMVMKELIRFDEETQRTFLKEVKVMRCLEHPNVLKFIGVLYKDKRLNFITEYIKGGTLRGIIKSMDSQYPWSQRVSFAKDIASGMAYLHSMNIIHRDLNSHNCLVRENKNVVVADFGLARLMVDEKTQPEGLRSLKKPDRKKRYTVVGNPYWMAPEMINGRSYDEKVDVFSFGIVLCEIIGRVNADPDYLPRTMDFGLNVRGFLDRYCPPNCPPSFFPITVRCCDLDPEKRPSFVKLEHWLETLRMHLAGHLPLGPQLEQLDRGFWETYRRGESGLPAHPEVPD
Leukocyte tyrosine kinase receptor (Homo sapiens), sequence (P29376 whole entry): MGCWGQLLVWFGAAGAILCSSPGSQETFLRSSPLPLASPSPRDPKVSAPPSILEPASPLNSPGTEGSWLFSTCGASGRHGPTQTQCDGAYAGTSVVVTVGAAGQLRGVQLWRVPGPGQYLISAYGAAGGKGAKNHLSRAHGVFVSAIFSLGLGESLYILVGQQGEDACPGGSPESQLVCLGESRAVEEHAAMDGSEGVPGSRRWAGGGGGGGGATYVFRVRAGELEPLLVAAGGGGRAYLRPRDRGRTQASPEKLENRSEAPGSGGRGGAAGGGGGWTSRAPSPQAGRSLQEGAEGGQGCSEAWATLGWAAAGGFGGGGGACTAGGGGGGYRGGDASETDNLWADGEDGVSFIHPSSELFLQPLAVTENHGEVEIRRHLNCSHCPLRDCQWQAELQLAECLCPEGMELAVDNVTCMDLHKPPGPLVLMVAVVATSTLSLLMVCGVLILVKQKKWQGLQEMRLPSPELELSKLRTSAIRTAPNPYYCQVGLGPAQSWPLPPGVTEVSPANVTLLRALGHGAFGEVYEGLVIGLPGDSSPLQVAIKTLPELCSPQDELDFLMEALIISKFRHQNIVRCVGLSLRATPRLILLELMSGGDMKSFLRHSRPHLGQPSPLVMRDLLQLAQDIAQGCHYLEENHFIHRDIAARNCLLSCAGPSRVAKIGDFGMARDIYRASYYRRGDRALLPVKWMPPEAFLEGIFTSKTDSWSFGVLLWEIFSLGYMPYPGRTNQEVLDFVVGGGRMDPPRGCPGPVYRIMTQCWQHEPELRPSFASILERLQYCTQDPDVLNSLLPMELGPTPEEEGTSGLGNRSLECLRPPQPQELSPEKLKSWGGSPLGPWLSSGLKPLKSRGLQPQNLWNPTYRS
Serine/threonine-protein kinase MRCK beta (Homo sapiens), sequence (Q9Y5S2 whole entry): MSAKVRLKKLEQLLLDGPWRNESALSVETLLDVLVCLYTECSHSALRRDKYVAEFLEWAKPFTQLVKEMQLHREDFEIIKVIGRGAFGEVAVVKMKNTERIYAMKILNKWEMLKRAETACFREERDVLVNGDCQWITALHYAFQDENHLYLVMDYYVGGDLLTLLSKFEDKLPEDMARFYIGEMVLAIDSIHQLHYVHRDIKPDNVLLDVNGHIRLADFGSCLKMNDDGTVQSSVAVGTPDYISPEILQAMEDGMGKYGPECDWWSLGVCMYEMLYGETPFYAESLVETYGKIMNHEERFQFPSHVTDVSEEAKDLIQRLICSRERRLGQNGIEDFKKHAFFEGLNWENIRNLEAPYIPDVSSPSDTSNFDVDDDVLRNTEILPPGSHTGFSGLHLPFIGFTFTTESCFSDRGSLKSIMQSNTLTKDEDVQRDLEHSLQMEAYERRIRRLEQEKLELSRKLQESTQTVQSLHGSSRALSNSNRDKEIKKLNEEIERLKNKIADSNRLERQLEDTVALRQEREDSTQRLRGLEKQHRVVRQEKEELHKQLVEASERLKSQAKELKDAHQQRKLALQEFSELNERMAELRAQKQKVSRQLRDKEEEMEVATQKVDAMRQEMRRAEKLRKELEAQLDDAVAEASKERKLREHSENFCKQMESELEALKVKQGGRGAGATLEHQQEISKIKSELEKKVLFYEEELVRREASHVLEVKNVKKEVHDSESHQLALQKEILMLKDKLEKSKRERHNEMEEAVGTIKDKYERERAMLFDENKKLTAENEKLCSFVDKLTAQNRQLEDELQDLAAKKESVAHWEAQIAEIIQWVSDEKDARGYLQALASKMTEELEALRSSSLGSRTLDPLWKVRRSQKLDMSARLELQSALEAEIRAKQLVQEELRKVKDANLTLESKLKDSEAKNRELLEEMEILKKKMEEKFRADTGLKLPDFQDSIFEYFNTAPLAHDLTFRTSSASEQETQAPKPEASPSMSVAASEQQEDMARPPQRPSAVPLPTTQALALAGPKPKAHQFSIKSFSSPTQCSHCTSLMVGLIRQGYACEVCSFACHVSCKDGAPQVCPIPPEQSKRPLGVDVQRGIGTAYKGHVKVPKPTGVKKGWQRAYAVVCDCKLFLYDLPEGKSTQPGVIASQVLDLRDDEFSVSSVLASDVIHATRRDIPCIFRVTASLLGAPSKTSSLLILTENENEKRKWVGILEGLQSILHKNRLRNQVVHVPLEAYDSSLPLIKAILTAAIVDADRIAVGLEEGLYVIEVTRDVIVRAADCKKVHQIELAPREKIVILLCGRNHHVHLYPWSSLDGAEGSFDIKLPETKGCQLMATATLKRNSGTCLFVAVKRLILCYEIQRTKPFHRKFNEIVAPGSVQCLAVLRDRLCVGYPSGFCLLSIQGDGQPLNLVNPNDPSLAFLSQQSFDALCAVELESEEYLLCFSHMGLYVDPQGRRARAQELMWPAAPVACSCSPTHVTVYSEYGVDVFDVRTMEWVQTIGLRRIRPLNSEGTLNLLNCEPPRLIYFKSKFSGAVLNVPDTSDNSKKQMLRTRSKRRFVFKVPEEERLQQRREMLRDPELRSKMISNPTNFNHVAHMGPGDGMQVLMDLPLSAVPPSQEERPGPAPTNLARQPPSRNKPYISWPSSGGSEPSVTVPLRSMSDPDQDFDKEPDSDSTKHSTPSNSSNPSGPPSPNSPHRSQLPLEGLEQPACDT
D(1B) dopamine receptor (Homo sapiens), sequence (P21918 whole entry): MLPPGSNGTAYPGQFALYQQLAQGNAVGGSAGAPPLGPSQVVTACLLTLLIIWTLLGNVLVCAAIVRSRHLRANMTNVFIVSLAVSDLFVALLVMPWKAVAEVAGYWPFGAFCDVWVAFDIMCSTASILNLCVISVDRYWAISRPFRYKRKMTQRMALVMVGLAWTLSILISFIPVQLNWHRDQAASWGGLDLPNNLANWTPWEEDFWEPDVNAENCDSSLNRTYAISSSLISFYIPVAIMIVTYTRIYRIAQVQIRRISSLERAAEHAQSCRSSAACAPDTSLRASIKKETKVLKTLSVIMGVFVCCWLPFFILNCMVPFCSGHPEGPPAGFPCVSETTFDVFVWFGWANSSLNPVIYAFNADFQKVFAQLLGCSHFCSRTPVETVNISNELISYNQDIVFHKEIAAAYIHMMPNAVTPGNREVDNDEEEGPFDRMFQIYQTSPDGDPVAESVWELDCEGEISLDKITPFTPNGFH
Ribosomal protein S6 kinase alpha-6 (Homo sapiens), sequence (Q9UK32 whole entry): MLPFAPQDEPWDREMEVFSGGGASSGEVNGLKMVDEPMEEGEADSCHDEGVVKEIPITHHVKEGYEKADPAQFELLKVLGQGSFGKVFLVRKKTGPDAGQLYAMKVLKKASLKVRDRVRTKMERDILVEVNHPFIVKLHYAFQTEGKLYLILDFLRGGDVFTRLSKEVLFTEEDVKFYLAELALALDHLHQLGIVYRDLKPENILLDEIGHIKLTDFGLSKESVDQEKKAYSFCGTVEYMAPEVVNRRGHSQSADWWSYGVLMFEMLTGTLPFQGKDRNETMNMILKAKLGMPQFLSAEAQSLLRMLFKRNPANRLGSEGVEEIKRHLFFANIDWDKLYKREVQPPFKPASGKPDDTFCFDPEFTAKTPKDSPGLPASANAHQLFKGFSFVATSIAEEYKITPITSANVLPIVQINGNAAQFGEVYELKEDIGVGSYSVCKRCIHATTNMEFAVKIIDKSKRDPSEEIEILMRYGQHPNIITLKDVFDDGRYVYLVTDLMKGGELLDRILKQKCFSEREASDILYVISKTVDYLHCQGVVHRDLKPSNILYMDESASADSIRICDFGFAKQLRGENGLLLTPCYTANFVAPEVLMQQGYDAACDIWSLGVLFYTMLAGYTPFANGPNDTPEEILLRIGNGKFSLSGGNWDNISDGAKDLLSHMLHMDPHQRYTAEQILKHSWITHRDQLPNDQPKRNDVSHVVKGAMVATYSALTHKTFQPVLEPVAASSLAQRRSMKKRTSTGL
Cyclin-dependent kinase 14 (Homo sapiens), sequence (O94921 whole entry, canonical isoform): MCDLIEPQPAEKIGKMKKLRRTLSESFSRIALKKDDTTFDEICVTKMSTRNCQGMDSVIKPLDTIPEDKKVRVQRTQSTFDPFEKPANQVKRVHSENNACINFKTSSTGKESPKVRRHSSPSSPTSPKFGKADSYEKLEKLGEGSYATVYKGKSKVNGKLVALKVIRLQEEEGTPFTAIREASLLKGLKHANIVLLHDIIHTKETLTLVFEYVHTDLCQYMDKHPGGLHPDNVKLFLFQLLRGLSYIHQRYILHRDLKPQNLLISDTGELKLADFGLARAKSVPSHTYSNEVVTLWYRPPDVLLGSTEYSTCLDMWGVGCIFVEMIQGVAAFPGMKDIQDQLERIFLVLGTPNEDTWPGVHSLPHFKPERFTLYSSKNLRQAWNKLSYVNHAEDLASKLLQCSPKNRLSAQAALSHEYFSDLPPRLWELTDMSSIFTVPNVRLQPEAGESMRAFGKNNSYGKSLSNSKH

O=C(Nc1ccc(Oc2ccc(F)cc2)cc1)N1CCc2ncccc2[C@H]1c1ccc(F)cc1 [BAY-897]
inactive: residual activity [1] 100% | residual activity [2] 96% | residual activity [3] 87% | residual activity [4] 100% | residual activity [5] 100% | residual activity [6] 99% | residual activity [7] 94% | residual activity [8] 100% | residual activity [9] 74% | residual activity [10] 71% | residual activity [11] 100% | residual activity [12] 100% | residual activity [13] 100% | residual activity [14] 100% | residual activity [15] 93% | residual activity [16] 93% | residual activity [17] 89% | residual activity [18] 91% | residual activity [19] 100% | residual activity [20] 100% | residual activity [21] 85% | residual activity [22] 86% | residual activity [23] 89% | residual activity [24] 86% | residual activity [25] 80% | residual activity [26] 88% | residual activity [27] 100% | residual activity [28] 94% | residual activity [29] 66% | residual activity [30] 89% | residual activity [31] 100% | residual activity [32] 100% | residual activity [33] 100% | residual activity [34] 91% | residual activity [35] 95% | residual activity [36] 70% | residual activity [37] 100% | residual activity [38] 89% | residual activity [39] 89% | residual activity [40] 85% | residual activity [41] 99% | residual activity [42] 92% | inhibition [43] 29.1% | inhibition [44] 15.9% | inhibition [45] 49.6%

O=C(Nc1cnc(Oc2ccc(F)cc2)nc1)N1CCc2ncccc2[C@@H]1c1ccc(F)cc1 [BAY-899]
inactive: residual activity [1] 95% | residual activity [2] 100% | residual activity [3] 81% | residual activity [4] 98% | residual activity [5] 97% | residual activity [6] 92% | residual activity [7] 100% | residual activity [8] 100% | residual activity [9] 72% | residual activity [10] 70% | residual activity [11] 100% | residual activity [12] 100% | residual activity [13] 100% | residual activity [14] 88% | residual activity [15] 100% | residual activity [16] 98% | residual activity [17] 94% | residual activity [18] 91% | residual activity [19] 100% | residual activity [20] 96% | residual activity [21] 99% | residual activity [22] 93% | residual activity [23] 99% | residual activity [24] 91% | residual activity [25] 89% | residual activity [26] 73% | residual activity [27] 100% | residual activity [28] 100% | residual activity [29] 69% | residual activity [30] 100% | residual activity [31] 89% | residual activity [32] 100% | residual activity [33] 97% | residual activity [34] 100% | residual activity [35] 75% | residual activity [36] 90% | residual activity [37] 82% | residual activity [38] 91% | residual activity [39] 90% | residual activity [40] 100% | residual activity [41] 100% | residual activity [42] 100% | inhibition [43] 10.1% | inhibition [44] 5.89% | inhibition [45] 9.66%

Source: ChEMBL document CHEMBL4507317, “Data for DCP probe BAY-899” (2021)
